Assay results: ChEMBL document CHEMBL1156829 (Proc Natl Acad Sci U S A, 2008)

How the values were obtained:
Plasmodium falciparum [1] = test: NOVARTIS: Inhibition of Plasmodium falciparum 3D7 (drug-susceptible) proliferation in erythrocyte-based infection assay; assay type: functional, organism-based; details: Plasmodium falciparum, 3D7
Plasmodium falciparum [2] = test: NOVARTIS: Inhibition of Plasmodium falciparum W2 (drug-resistant) proliferation in erythrocyte-based infection assay; assay type: functional, organism-based; details: Plasmodium falciparum, W2; read-out: EC50
[3] = NOVARTIS: Cytotoxicity against human hepatocellular carcinoma cell line (Huh7); assay type: toxicity, cell-based, Huh-7; details: Huh7 cells (hepatocellular carcinoma cell line)

Row | Structure (SMILES) | EC50 (Plasmodium falciparum [1]) | EC50 (Plasmodium falciparum [2]) | CC50 [3]
1 | Oc1ccc(-c2ccc3c(c2)OCO3)cc1CNC1CCN(Cc2ccccc2)CC1 | 0.598 µM | 0.364 µM | 29.9 µM
2 | COc1ccc2c(C)nc(Nc3nc(C)cc(-c4ccccc4)n3)nc2c1 | 0.341 µM | 1.17 µM | > 100 µM
3 | CC(=NNC(=O)/C(=C/c1ccc([N+](=O)[O-])cc1)NC(=O)c1ccccc1)c1ccccn1 | 1.05 µM | 0.117 µM | > 10 µM
4 | Cn1cc(C(c2cccs2)c2cn(C)c3ccccc23)c2ccccc21 | 1.37 µM | 0.61 µM | 52.3 µM
5 | Cc1cccc(-c2cc(C(=O)NC3CCN(Cc4ccccc4)CC3)cc(-n3cnnn3)c2)c1 | 0.372 µM | 0.57 µM | 50.1 µM
6 | Cc1cccc(OC(C)C(=O)N2CCc3ccccc32)c1 (stereo not given) | 3.48 µM | 1.14 µM | > 100 µM
7 | Cc1n(N)c2ccccc2[n+]1CC(=O)c1ccc([N+](=O)[O-])cc1 | 1.95 µM | 1.14 µM | > 100 µM
8 | CC(=O)N(C1=C(N2CCCCC2)C(=O)c2ccccc2C1=O)c1cccc(Cl)c1 | 0.239 µM | 0.375 µM | 32 µM
9 | c1ccc(CCNC2CCN(Cc3ccccc3)CC2)cc1 | 1.47 µM | 0.5 µM | 43.5 µM
10 | O=[N+]([O-])c1cc(Br)c(Nc2ccccc2)c([N+](=O)[O-])c1 | 0.167 µM | 0.0758 µM | 6.6 µM
11 | COc1cc2ccccc2cc1C(=O)NCCOC12CC3CC(CC(C3)C1)C2 | 3.5 µM | 1.15 µM | > 100 µM
12 | Cc1ccn2c(NC(C)(C)CC(C)(C)C)c(-c3ccccc3OC(=O)c3ccccc3Br)nc2c1 | 0.76 µM | 0.117 µM | > 10 µM
13 | CCCCCCc1ccc(C(=O)Oc2ccccc2-c2nc3cc(C)ccn3c2NC(C)(C)CC(C)(C)C)cc1 | 0.813 µM | 0.162 µM | > 13.8 µM
14 | Cc1ccc(-c2c3c4n(c(-c5ccc(Cl)cc5)cn4c2C(=O)Nc2ccccc2Cl)CCCC3)cc1 | 0.269 µM | 1.16 µM | > 100 µM
15 | Cc1ccc2nc(C)cc(NCCN(C)C)c2c1 | 0.36 µM | 0.709 µM | 59.1 µM
16 | Cc1cc2c(Nc3cccc(Cl)c3C)ncnc2s1 | 1.91 µM | 1.19 µM | > 100 µM
17 | COc1ccc(C2CC(c3cccs3)=NN2C(=O)CSc2nnc(CNC(=O)c3cccs3)n2-c2cc(C)ccc2C)cc1 (stereo not given) | > 8.55 µM | 1.14 µM | > 100 µM
18 | N#CC(=Cn1cc(Cc2ccc(Cl)cc2Cl)c2ccccc21)c1nn(CCO)c(N)c1C#N | 0.629 µM | 0.909 µM | 75 µM

Row | Structure (SMILES) | EC50 (Plasmodium falciparum [1]) | EC50 (Plasmodium falciparum [2]) | CC50 [3]
19 | COc1cc(CN2CC3CC(C2)c2cccc(=O)n2C3)ccc1O (stereo not given) | > 12.5 µM | 1.21 µM | > 100 µM
20 | C(=NNc1nc2ccccc2[nH]1)c1ccccc1 | 0.587 µM | 1.19 µM | > 100 µM
21 | COc1ccc(OC)c(-c2ccc(O)c(CNCC3CCCCC3)c2)c1 | 0.35 µM | 0.12 µM | > 10 µM
22 | CCCc1c(CC)c(=N)c2ccccc2n1C | 0.762 µM | 1.14 µM | > 100 µM
23 | CCC(c1nc2ccccc2c(=O)n1-c1ccccc1OC)N(CCc1ccccc1)C(=O)c1cccc(C(F)(F)F)c1 (stereo not given) | 0.919 µM | 0.118 µM | > 10 µM
24 | COc1ccccc1C(=O)NC1CCN(CC(O)CN(Cc2ccccc2)S(=O)(=O)c2ccccc2)C1 (stereo not given) | 0.215 µM | 0.115 µM | > 10 µM
25 | N#Cc1c2c(c(N3CCN(c4ccccn4)CC3)n3c1nc1ccccc13)CCC2 | 2.36 µM | 1.18 µM | > 100 µM
26 | CCN(CC)S(=O)(=O)c1ccc(-c2csc(Nc3ccc(C)c(C)c3)n2)cc1 | > 2.1 µM | > 1.17 µM | > 100 µM
27 | CC1=C(C(=O)OC(C)C)C(c2ccc([N+](=O)[O-])cc2)C2=C(CCCC2=O)N1 (stereo not given) | 6.23 µM | 1.14 µM | > 100 µM
28 | CCOC(=O)c1cnn(-c2ccnc3cc(Cl)ccc23)c1CNC(C)c1ccco1 (stereo not given) | 0.795 µM | 0.448 µM | 38.9 µM
29 | CCC(Sc1nc2ccccc2n1C(C)=O)C(=O)NC1=NN=C(c2ccc(Br)cc2)CS1 (stereo not given) | 0.549 µM | 0.543 µM | 46.7 µM
30 | c1ccc(-c2nc3cc4nc(-c5ccccc5)[nH]c4cc3[nH]2)cc1 | 0.285 µM | 1.2 µM | > 100 µM
31 | CN(CCCNc1ccnc2cc(Cl)ccc12)C(=O)c1ccc(C(C)(C)C)cc1 | 0.0812 µM | 0.0465 µM | 3.89 µM
32 | O=C1c2ccccc2C2=Nc3ccccc3SC(c3ccccc3F)C12 (stereo not given) | 0.209 µM | 0.278 µM | 22.9 µM
33 | O=C(NC1CCN(CC(O)CN(Cc2ccccc2)S(=O)(=O)c2ccccc2)C1)C1CCCCC1 (stereo not given) | 0.185 µM | 0.116 µM | > 10 µM
34 | CC(C)NC(=O)c1ccc2c(c1)N=C(c1ccccc1)N(C1CC1)C2 | > 1.68 µM | 0.117 µM | > 10 µM
35 | COc1ccc(OC)c(-c2ccc(O)c(CNCc3ccccc3OC)c2)c1 | > 1.52 µM | 0.117 µM | > 10 µM
